pIC50: −log10 of the molar value.
What was measured:
[1] = target: Histone deacetylase 3/Nuclear receptor corepressor 2 (HDAC3/NCoR2) (Homo sapiens, UniProt O15379); assay: Inhibition of C-terminal His tagged human recombinant HDAC3 (1 to 428 end residues)/N-terminal GST-tagged human NcoR2 expressed in Sf9 insect cells using Z-Lys(Ac)-AMC as substrate preincubated for 60 mins followed by substrate addition and measured after 90 mins by fluorescence based microplate reader analysis
[2] = Antiproliferative activity against human MM1.S cells assessed as cell viability at 50 uM incubated for 72 hrs by CellTiter-Glo assay relative to control; format: toxicity, cell-based; conditions: read-out: Activity
MM1.S = assay: Induction of degradation of HDAC6 in human MM1.S cells at 0.5 uM incubated for 24 hrs by immunoblot analysis relative to control; format: cell-based
[3] = Antiproliferative activity against human MM1.S cells assessed as cell viability incubated for 72 hrs by CellTiter-Glo assay; format: toxicity, cell-based

Histone deacetylase 3/Nuclear receptor corepressor 2 (HDAC3/NCoR2), sequence (O15379 whole entry): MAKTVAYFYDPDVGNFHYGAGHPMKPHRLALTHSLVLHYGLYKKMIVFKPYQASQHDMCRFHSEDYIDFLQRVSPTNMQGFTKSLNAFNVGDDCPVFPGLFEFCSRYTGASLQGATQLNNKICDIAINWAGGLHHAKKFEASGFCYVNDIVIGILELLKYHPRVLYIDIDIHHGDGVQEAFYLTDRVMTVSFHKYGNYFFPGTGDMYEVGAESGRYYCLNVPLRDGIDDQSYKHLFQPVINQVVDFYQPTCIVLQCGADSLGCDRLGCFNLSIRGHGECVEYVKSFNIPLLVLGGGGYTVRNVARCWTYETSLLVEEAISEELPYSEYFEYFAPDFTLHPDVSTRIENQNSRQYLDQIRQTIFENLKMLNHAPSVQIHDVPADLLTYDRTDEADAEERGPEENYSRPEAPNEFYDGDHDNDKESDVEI
Histone deacetylase 3/Nuclear receptor corepressor 2 (HDAC3/NCoR2), sequence (Q9Y618 whole entry, further chain): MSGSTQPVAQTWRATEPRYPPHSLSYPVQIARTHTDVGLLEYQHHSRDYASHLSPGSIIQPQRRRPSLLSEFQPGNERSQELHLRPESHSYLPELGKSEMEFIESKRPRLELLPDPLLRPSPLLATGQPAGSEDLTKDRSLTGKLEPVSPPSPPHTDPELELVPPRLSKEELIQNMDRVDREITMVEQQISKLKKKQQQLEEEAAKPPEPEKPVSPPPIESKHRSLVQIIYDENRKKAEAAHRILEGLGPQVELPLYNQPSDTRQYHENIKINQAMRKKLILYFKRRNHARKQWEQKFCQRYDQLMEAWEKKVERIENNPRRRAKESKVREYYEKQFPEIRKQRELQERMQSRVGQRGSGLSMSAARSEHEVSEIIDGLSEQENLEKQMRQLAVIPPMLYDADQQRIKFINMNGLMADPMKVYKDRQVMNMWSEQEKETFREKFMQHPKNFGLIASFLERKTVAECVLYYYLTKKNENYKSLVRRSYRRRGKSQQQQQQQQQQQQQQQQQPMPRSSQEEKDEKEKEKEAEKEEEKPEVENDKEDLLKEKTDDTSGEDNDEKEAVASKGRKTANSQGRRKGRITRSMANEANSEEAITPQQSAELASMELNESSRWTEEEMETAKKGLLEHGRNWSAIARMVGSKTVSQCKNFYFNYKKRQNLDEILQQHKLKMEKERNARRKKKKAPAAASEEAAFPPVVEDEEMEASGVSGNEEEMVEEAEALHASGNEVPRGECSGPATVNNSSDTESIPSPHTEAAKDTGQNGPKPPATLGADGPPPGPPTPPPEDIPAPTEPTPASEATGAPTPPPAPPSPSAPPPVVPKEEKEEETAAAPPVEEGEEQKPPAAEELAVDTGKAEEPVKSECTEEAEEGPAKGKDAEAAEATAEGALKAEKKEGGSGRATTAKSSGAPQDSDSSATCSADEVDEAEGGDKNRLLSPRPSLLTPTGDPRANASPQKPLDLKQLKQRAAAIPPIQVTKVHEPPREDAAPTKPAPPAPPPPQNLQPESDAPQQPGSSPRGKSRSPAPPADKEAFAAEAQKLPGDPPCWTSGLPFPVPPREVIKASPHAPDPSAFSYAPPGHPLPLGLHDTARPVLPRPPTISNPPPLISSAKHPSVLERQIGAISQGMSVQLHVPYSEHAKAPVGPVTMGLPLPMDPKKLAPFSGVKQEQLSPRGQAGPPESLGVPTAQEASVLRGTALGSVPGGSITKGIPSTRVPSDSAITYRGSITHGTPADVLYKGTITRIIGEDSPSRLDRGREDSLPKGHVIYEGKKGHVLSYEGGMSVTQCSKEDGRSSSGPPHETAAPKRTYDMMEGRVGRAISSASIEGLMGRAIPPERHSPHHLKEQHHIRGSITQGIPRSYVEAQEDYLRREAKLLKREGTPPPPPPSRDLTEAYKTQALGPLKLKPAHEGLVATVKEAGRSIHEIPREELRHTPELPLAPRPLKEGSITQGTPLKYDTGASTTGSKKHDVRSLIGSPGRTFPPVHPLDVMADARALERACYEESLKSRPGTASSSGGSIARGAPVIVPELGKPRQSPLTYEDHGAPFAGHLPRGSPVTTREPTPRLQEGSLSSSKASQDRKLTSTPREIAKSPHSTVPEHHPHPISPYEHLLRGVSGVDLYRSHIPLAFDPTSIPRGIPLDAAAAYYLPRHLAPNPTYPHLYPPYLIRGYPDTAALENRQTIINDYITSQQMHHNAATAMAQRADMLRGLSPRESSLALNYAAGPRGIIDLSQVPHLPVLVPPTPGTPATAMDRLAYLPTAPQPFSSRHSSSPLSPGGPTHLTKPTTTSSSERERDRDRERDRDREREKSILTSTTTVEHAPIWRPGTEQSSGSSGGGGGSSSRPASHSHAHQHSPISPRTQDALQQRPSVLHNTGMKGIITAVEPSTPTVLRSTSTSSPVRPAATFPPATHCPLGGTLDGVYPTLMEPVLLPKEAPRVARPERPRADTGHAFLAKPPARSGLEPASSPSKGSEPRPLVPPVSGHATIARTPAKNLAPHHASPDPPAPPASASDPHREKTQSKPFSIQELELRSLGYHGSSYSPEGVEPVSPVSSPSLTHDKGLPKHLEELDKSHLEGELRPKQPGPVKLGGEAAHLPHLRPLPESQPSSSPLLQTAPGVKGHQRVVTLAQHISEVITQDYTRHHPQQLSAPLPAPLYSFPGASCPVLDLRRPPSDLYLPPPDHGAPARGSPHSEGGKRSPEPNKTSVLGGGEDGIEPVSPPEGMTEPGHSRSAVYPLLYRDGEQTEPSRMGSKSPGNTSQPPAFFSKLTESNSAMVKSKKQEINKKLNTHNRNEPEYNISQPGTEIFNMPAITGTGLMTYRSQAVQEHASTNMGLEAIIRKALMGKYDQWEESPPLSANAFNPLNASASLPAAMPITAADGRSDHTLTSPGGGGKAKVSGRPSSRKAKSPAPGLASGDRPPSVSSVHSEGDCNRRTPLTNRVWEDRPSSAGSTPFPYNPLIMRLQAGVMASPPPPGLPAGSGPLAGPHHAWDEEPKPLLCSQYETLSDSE

Structure (SMILES) | pIC50 [1] | viability at 72 h, 50 µM [2] [%] | Activity (MM1.S) [%] | IC50 at 72 h [3] [µM]
O=C(CCCCCCNC(=O)c1ccc(NC(=O)CCCCCCCNC(=O)COc2cccc3c2C(=O)N(C2CCC(=O)NC2=O)C3=O)cc1)NO (configuration not stated) | 6.79 | > 50 | 94.5 | –
CCNNC(=O)c1ccc(CNC(=O)c2ccc(NC(=O)COCCOCCNc3cc4c(cc3F)C(=O)N(C3CCC(=O)NC3=O)C4=O)cc2)cc1 (configuration not stated) | 6.42 | > 50 | – | –
CCNNC(=O)c1ccc(CNC(=O)c2ccc(OCc3cn(CCOCCC(=O)N[C@H](C(=O)N4C[C@H](O)C[C@H]4C(=O)NCc4ccc(-c5scnc5C)cc4)C(C)(C)C)nn3)cc2)cc1 | 6.61 | > 50 | – | –
CCNNC(=O)c1ccc(CNC(=O)c2ccc(NC(=O)CCCCCCC(=O)N[C@H](C(=O)N3C[C@H](O)C[C@H]3C(=O)NCc3ccc(-c4scnc4C)cc3)C(C)(C)C)cc2)cc1 | 6.90 | > 50 | – | –
O=C(CCCCCCC(=O)Nc1ccccc1)NO [VORINOSTAT] | – | – | – | 0.8
CCNNC(=O)c1ccc(CNC(=O)c2ccc(OCc3cn(CCCCCC(=O)N[C@H](C(=O)N4C[C@H](O)C[C@H]4C(=O)NCc4ccc(-c5scnc5C)cc4)C(C)(C)C)nn3)cc2)cc1 | 6.38 | > 50 | – | –
CCNNC(=O)c1ccc(CNC(=O)c2ccc(NC(=O)COCCOCC(=O)N[C@H](C(=O)N3C[C@H](O)C[C@H]3C(=O)NCc3ccc(-c4scnc4C)cc3)C(C)(C)C)cc2)cc1 | 6.14 | > 50 | – | –
CCNNC(=O)c1ccc(CNC(=O)c2ccc(OCc3cn(CCCCCCNc4cc5c(cc4F)C(=O)N(C4CCC(=O)NC4=O)C5=O)nn3)cc2)cc1 (configuration not stated) | 6.21 | > 50 | – | –
CCNNC(=O)c1ccc(CNC(=O)c2ccc(OCc3cn(CCOCCNc4cc5c(cc4F)C(=O)N(C4CCC(=O)NC4=O)C5=O)nn3)cc2)cc1 (configuration not stated) | 6.48 | – | – | 24.9
CCNNC(=O)c1ccc(CNC(=O)c2ccc(OCc3cn(CCCCCCNc4cc5c(cc4F)C(=O)N(C4CCC(=O)N(C)C4=O)C5=O)nn3)cc2)cc1 (configuration not stated) | 6.27 | > 50 | – | –
CCNNC(=O)c1ccc(CNC(=O)c2ccc(NC(=O)CCCCCCCNc3cc4c(cc3F)C(=O)N(C3CCC(=O)NC3=O)C4=O)cc2)cc1 (configuration not stated) | 6.62 | – | – | 18.4

From ChEMBL document CHEMBL6103670, “Development of Ethyl-Hydrazide-Based Selective Histone Deacetylase 6 (HDAC6) PROTACs” (ACS Med Chem Lett, 2025)
